From patent US20250065017A1, “Fractionating Extracellular Matrix to Modulate Bioactivity and the Host Response” (University of Pittsburgh - Of the Commonwealth System of …, priority 2014, published 2025)

Tests used:
[1] = system: THP1 macrophage-like cells; assay: Secreted factor analysis (ELISA); type: cell-based, human
Experimental: THP-1 human monocytes were obtained from the American Tissue Culture Collection (ATCC, Manassas, VA) and maintained in RPMI, 10% FBS, 1% penicillin/streptomycin, 2 mM L-glutamine, and 1 mM sodium pyruvate in a humidified atmosphere at 37° C. with 5% CO2. For experiments, 500,000 THP-1 cells/mL were plated with 320 nM phorbol 12-myristate 13-acetate (PMA) for 24 hours to induce differentiation into macrophages. Adherent macrophages were washed in PBS and placed in fresh media, followed by a 24 hour incubation to acquiesce. […] Once cells were prepared as described above, aspirin (200 µM, where appropriate) was added for 1 hour. Subsequently, UBM hydrogel (0.5 mg/mL) or pepsin control buffer (0.05 mg/mL) was added and cells were allowed to incubate for 24-72 hours. After incubation, cells were pelleted by centrifugation (700×g, 5 minutes, 4° C.), and the culture supernatants were carefully removed. Supernatants were stored at -80° C. until the time of assay. Secreted factor concentrations in the culture supernatants were determined using commercially available ELISA kits (PGE2, PGF2α, ENZO Life Sciences) and IL-1RA (R&D Systems)) according to the manufacturer's instructions.

[2] = system: primary rat bone marrow derived macrophages; assay: PGE2 secretion in primary BMDM; type: cell-based; conditions: UBM hydrogel 0.5 mg/mL 48 hours; inhibitor pre-treatment 1 hour
Experimental: Rat bone marrow mononuclear cells were matured to macrophages as previously described ([…], Forster O. Differentiation of rat bone marrow cells into macrophages under the influence of mouse L929 cell supernatant. J Leukoc Biol 1987;41(1):83-91). […] The cell pellet was resuspended in red blood cell (RBC) lysis buffer (155 mM NH4Cl, 10 mM KHCO3, 0.9% EDTA in distilled water) and incubated for 15 minutes on ice. Cell debris was removed by centrifugation and the cell pellet was resuspended in macrophage maturation media (DMEM high glucose, 10% heat inactivated FBS, 20% L929 fibroblast conditioned media, 0.5 mM MEM non-essential amino acids, 2 mM L-glutamine, 10 mM Hepes pH 7.4, 1% penicillin/streptomycin, 0.12% 50 mM 2-mercaptoethanol). Cells were seeded at a density of 1 million/mL in 6 well plates and incubated at 37° C./5% CO2. Media was changed every 2-3 days for 7 days. Matured bone marrow derived macrophages (BMDMs) were treated with 1 mL of StemPro® Accutase® (Invitrogen), incubated at 37° C. for 10 minutes, and detached with gentle pipetting. The cell suspension was collected and centrifuged for 5 mins at 1400 rpm. […] Secreted factor concentrations in the culture supernatants were determined using commercially available ELISA kits (PGE2, PGF2α, ENZO Life Sciences) and IL-1RA (R&D Systems)) according to the manufacturer's instructions.

[3] = system: THP1 cells; assay: CD206 and CD86 expression by western blot; type: cell-based, human; conditions: Aspirin 200 μM with UBM hydrogel
Experimental: THP-1 human monocytes were obtained from the American Tissue Culture Collection (ATCC, Manassas, VA) and maintained in RPMI, 10% FBS, 1% penicillin/streptomycin, 2 mM L-glutamine, and 1 mM sodium pyruvate in a humidified atmosphere at 37° C. with 5% CO2. For experiments, 500,000 THP-1 cells/mL were plated with 320 nM phorbol 12-myristate 13-acetate (PMA) for 24 hours to induce differentiation into macrophages. Adherent macrophages were washed in PBS and placed in fresh media, followed by a 24 hour incubation to acquiesce.
THP1 macrophage-like cells prepared as described in the cell culture section had 200 μM Aspirin added (where appropriate) 1 hour prior to UBM hydrogel (0.5 mg/mL) treatment. Cells were then treated with UBM hydrogel for 4, 8, or 24 hours. At the specified time points, cells were washed extensively with 1× PBS and lysis buffer (50 mM Tris, 20 mM NaCl, 1% Triton X-100) was added. Cells were mechanically removed from the culture dish, transferred to centrifuge tubes and incubated on ice for 10 minutes. Lysates were spun down at 14000 rpm for 20 minutes at 4° C. to remove any debris. The clarified lysate was stored at −80° C. Lysates were diluted 1:1 in 2× Laemmli Sample Buffer (Bio-Rad, Hercules, CA) and boiled at 95° C. for 5 minutes. Samples were then resolved on 9% SDS-PAGE gels (National Diagnostics) and transferred to polyvinyldifluoride (PVDF, Millipore) membranes. Membranes were blocked with 1:1 Odyssey Blocking Buffer:1×PBS (Licor) overnight at 4° C. Blocked membranes were immunoblotted with either rabbit anti-human COX2 (1:5,000, Abcam), goat anti-human CD206 (1:3,000, Santa-Cruz), rabbit anti-human CD86 (1:5,000, Abcam), or mouse anti-human β-Actin (1:5,000, Abcam) in blocking buffer for 1 hour at room temperature with agitation. Membranes were extensively washed with TBST before the appropriate secondary antibodies (1:10,000, donkey anti-goat IR Dye 680, donkey-anti rabbit IR Dye 680, and donkey anti-mouse IR Dye 800, Licor) in imaging buffer (1:1 Odyssey Blocking Buffer, 0.02% SDS in TBST) were added for 30 minutes with agitation. […]

[4] = Aspirin 200 μM with UBM hydrogel 0.5 mg/mL, 48 hours

In the case of `CC(=O)Oc1ccccc1C(=O)O` [Aspirin], the IL-1RA secretion [1, 4] is reported as “did not cause any significant drop in IL-1RA secretion”, the “production of PGE2 and PGF2α” value [1, 4] is reported as “reduced production of both PGE2 and PGF2α down to basal levels” and the PGE2 production ([1]; THP1, UBM hydrogel 0.5 mg/mL 48 hours, inhibitor pre-treatment 1 hour) is reported as “reduced PGE2 production to baseline levels”. The PGE2 production [2] was “reduced PGE2 production to baseline levels”, the “maximum increase in CD86 expression” value ([3]; at 24 hours) was 0.15 fold and the “reduction in CD206 expression” value ([3]; at 24 hours) was 91%. The CD206 expression ([3]; early time points) was “did not alter CD206 expression”.
